Test results published in patent EP4603105A1, “PHARMACEUTICAL COMPOSITION CONTAINING CYCLIC COMPOUND HAVING SELECTIVE KRAS INHIBITORY EFFECT AGAINST HRAS AND NRAS” (CHUGAI SEIYAKU KABUSHIKI KAISHA, priority 2022, dated 2024).
pIC50, pKd: −log10 of the molar value. Like-named read-outs stand apart in the source and are kept apart here.

Key:
[1] = molecular target: GDP-bound KRAS wild-type protein (Homo sapiens, UniProt P01116); test: Binding to KRAS by surface plasmon resonance (SPR), dissociation constant KD
Chain of GDP-bound KRAS wild-type protein (P01116 1-188 isoform P01116-2): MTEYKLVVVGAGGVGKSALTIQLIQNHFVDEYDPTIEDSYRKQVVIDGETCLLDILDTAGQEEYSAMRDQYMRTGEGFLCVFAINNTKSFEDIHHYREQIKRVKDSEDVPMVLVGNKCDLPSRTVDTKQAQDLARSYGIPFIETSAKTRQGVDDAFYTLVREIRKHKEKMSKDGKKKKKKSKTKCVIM
Procedure, shortened: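 GDP-loaded biotinylated Avi-tag RAS proteins (E. coli-expressed) captured on a Biotin CAPture chip at ~100–300 RU; single-cycle kinetics at 30°C, 100 µL/min, 75 s injections of rising compound concentrations. HBS pH 7.4 running buffer with 1 mM DTT, 10 mM MgCl2, 10 µM GDP, 4% DMSO. KD from 1:1 binding fit.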

[2] = tested on: human lung cancer strain NCI-H441; test: NCI-H441 cell proliferation inhibitory activity (CellTiter-Glo, 4 days); assay type: cell-based; conditions: read-out: NCl-H441 IC50
Procedure, shortened: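 Readout: […] after the ATP-based reagent. Compound: serial dilutions in dimethyl sulfoxide.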

[3] = molecular target: GDP-bound NRAS wild-type protein (Homo sapiens, UniProt P01111); test: Binding to NRAS by surface plasmon resonance (SPR), KD and KD ratio to KRAS
Chain of GDP-bound NRAS wild-type protein (P01111 whole entry): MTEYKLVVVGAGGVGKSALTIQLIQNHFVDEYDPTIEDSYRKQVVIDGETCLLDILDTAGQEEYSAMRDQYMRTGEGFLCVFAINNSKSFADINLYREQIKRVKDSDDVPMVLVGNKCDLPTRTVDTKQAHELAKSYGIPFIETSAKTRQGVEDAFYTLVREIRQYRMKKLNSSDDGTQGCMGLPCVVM
Procedure, shortened: (§1)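 GDP-bound biotin-Avi RAS captured at ~100–300 RU, 30°C, pH 7.4 HBS containing 10 µM GDP, 10 mM MgCl2, 1 mM DTT, 0.01% Tween 20 and 4% DMSO. KD by 1:1 fitting.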

HRAS wild-type protein = HRAS wild-type protein (Homo sapiens, UniProt P01112); test: Binding to HRAS by surface plasmon resonance (SPR), KD and KD ratio to KRAS
Chain of HRAS wild-type protein (P01112 whole entry): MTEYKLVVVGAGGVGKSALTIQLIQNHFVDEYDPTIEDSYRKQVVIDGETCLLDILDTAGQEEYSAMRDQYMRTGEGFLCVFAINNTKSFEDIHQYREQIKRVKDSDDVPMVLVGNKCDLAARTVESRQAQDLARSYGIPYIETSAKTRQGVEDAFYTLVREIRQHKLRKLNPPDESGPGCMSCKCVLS
Procedure, shortened: as §1

[4] = Single Cycle Kinetics, 1:1 binding model
[5] = 50% proliferation inhibitory concentration, four days
[6] = ratio of KD with respect to GDP-bound NRAS wild-type protein to KD with respect to KRAS
[7] = ratio of KD with respect to HRAS wild-type protein to KD with respect to KRAS
[8] = ratio of KD for GDP-bound NRAS wild-type protein to KD for KRAS
[9] = ratio of KD for HRAS wild-type protein to KD for KRAS

| Structure (SMILES) | pKd [1, 4] | pIC50 [2, 5] | NRAS /KRAS [3, 6] | HRAS /KRAS (HRAS wild-type protein; [7]) | pKd ([1]; 1:1 binding model) | pIC50 ([2]; NCI-H441 cells, 4 days) | NRAS /KRAS [3, 8] | HRAS /KRAS (HRAS wild-type protein; [9]) | pKd ([1]; Single Cycle Kinetics) |
| --- | --- | --- | --- | --- | --- | --- | --- | --- | --- |
| CCO[C@@H]1C[C@H]2C(=O)NC3(CCC3)C(=O)N(C)[C@@H](C3CCCC3)C(=O)N(C)[C@H](C(=O)N(C)C)CC(=O)N(C)[C@@H](CC3CC3)C(=O)N[C@@H]([C@@H](C)CC)C(=O)N(C)CC(=O)N(C)[C@H]3C/C=C\CCN(C3=O)[C@@H](Cc3ccc(C(F)(F)F)cc3)C(=O)N(C)CC(=O)N[C@@H](CCc3ccc(Cl)c(Cl)c3)C(=O)N2C1 [PP1253] | 9.70 | 7.65 | A (a compound having 10 or more and less than 20 is denoted as A) | A (a compound having 10 or more and less than 20 is denoted as A) |  |  |  |  |  |
| CCC(CC)[C@H]1C(=O)N(C)[C@H](C(=O)N(C)C)CC(=O)N(C)[C@@H](COC)C(=O)N[C@@H]([C@@H](C)CC)C(=O)N(C2CC2)CC(=O)N(C)[C@H]2C/C=C\CCN(C2=O)[C@@H](CC2CCC(F)(F)CC2)C(=O)N(C)CC(=O)N[C@@H](CCc2ccc(Cl)c(Cl)c2)C(=O)N2C[C@H](OC(C)C)C[C@H]2C(=O)NC2(CC(C)(C)C2)C(=O)N1C [PP2525] |  |  |  |  | 8.42 | 6.85 | AA (a compound having 20 or more is denoted as AA) | A (a compound having 10 or more and less than 20 is denoted as A) |  |
| CCO[C@@H]1C[C@H]2C(=O)NC3(CC(C)(C)C3)C(=O)N(C)[C@@H](C3CCCC3)C(=O)N(C)[C@H](C(=O)N(C)CC)CC(=O)N(C)[C@@H]([C@H](C)OC)C(=O)N[C@@H]([C@@H](C)CC)C(=O)N(C)CC(=O)N(C)[C@H]3C/C=C\CCN(C3=O)[C@@H](Cc3ccc(C)cc3)C(=O)N(C)CC(=O)N[C@@H](CCc3ccc(C(F)(F)F)c(Cl)c3)C(=O)N2C1 [PP3227] |  |  |  |  |  | 7.63 | A (a compound having 10 or more and less than 20 is denoted as A) | A (a compound having 10 or more and less than 20 is denoted as A) | 9.68 |
| CCO[C@@H]1C[C@H]2C(=O)NC3(CCC3)C(=O)N(C)[C@@H](C3CCCC3)C(=O)N(C)[C@H](C(=O)N3CCOCC3)CC(=O)N(C)[C@@H](Cc3cccs3)C(=O)N[C@@H]([C@@H](C)CC)C(=O)N(C)CC(=O)N(C)[C@H]3CCCCCN(C3=O)[C@@H](Cc3ccc(F)cc3)C(=O)N(C)CC(=O)N[C@@H](CCc3cc(F)c(C(F)(F)F)c(F)c3)C(=O)N2C1 [PP1183] | 9.59 | 7.56 | B (a compound having 3 or more and less than 10 is denoted as B) | B (a compound having 3 or more and less than 10 is denoted as B) |  |  |  |  |  |
| CCC[C@H]1C(=O)N[C@@H](C2CCCC2)C(=O)N(C)CC(=O)N(C)[C@H]2C/C=C\CCN(C2=O)[C@@H](Cc2ccc(C)cc2)C(=O)N(C)CC(=O)N[C@@H](CCc2ccc(C(F)(F)F)c(Cl)c2)C(=O)N2CC3(CC3)C[C@H]2C(=O)N(C)C2(CCC2)C(=O)N(C)[C@@H](CC(C)(C)C)C(=O)N(C)[C@H](C(=O)N(C)C)CC(=O)N1C [PP3328] |  |  |  |  |  | 8.77 | A (a compound having 10 or more and less than 20 is denoted as A) | B (a compound having 3 or more and less than 10 is denoted as B) | 10.59 |
| CCO[C@@H]1C[C@H]2C(=O)NC3(CCC3)C(=O)N(C)[C@@H](C3CCCC3)C(=O)N(C)[C@H](C(=O)N(C)C)CC(=O)N(C)[C@@H](CC3CC3)C(=O)N[C@@H]([C@@H](C)CC)C(=O)N(C)CC(=O)N(C)[C@H]3C/C=C\CCN(C3=O)[C@@H](Cc3ccc(C)cc3)C(=O)N(C)CC(=O)N[C@@H](CCc3cc(F)c(Cl)c(F)c3)C(=O)N2C1 [PP1484] | 9.35 | 7.23 | A (a compound having 10 or more and less than 20 is denoted as A) | A (a compound having 10 or more and less than 20 is denoted as A) |  |  |  |  |  |
| CCCOC[C@H]1C(=O)N[C@@H]([C@@H](C)CC)C(=O)N(C)CC(=O)N(C)[C@H]2C/C=C\CCN(C2=O)[C@@H](CC2CCC(F)(F)CC2)C(=O)N(C)CC(=O)N[C@@H](CCc2cc(F)c(C(F)(F)F)c(F)c2)C(=O)N2C[C@@H](C)C[C@H]2C(=O)NC2(CC(C)(C)C2)C(=O)N(C)[C@@H](C(CC)CC)C(=O)N(C)[C@H](C(=O)N(C)C)CC(=O)N1C [PP2490] |  |  |  |  | 8.77 | 6.79 | AA (a compound having 20 or more is denoted as AA) | A (a compound having 10 or more and less than 20 is denoted as A) |  |
| CCO[C@@H]1C[C@H]2C(=O)NC3(CC(C)(C)C3)C(=O)N(C)[C@@H](C(CC)CC)C(=O)N(C)[C@H](C(=O)N(C)C)CC(=O)N(C)[C@@H](COC)C(=O)N[C@@H]([C@@H](C)CC)C(=O)N(C3CC3)CC(=O)N(C)[C@H]3C/C=C\CCN(C3=O)[C@@H](CC3CCCCC3)C(=O)N(C)CC(=O)N[C@@H](CCc3cc(F)c(C(F)(F)F)c(F)c3)C(=O)N2C1 [PP2564] |  |  |  |  | 8.12 | 6.65 | A (a compound having 10 or more and less than 20 is denoted as A) | A (a compound having 10 or more and less than 20 is denoted as A) |  |
| CCC(CC)[C@H]1C(=O)N(C)[C@H](C(=O)N(C)C)CC(=O)N(C)[C@@H](C(C)C)C(=O)N[C@@H]([C@@H](C)CC)C(=O)N(C)CC(=O)N(C)[C@H]2C/C=C\CCN(C2=O)[C@@H](CC2CCC(F)(F)CC2)C(=O)N(C)CC(=O)N[C@@H](CCc2cc(F)c(C(F)(F)F)c(F)c2)C(=O)N2C[C@@H](C)C[C@H]2C(=O)NC2(CC(C)(C)C2)C(=O)N1C [PP2496] |  |  |  |  | 8.21 | 7.01 | A (a compound having 10 or more and less than 20 is denoted as A) | A (a compound having 10 or more and less than 20 is denoted as A) |  |
| C#CC[C@H]1C(=O)N[C@@H]([C@@H](C)CC)C(=O)N2CCC[C@H]2C(=O)N(C)[C@H]2C/C=C\CCN(C2=O)[C@@H](Cc2ccc(C(F)(F)F)cc2)C(=O)N(C)CC(=O)N[C@@H](CCc2ccc(C(F)(F)F)c(OC)c2)C(=O)N2C[C@H](OCC)C[C@H]2C(=O)OC2(CCC2)C(=O)N(C)[C@@H](C2CCCC2)C(=O)N(C)[C@H](C(=O)N(C)C)CC(=O)N1C [PP3371] |  |  |  |  |  | 8.27 | A (a compound having 10 or more and less than 20 is denoted as A) | A (a compound having 10 or more and less than 20 is denoted as A) | 9.48 |
| CCO[C@@H]1C[C@H]2C(=O)NC3(CCC3)C(=O)N(C)[C@@H](C3CCCC3)C(=O)N(C)[C@H](C(=O)N3CCOCC3)CC(=O)N(C)[C@@H](CC(C)C)C(=O)N[C@@H]([C@@H](C)CC)C(=O)N3CC[C@H]3C(=O)N(C)[C@H]3CC[C@@H](C)CN(C3=O)[C@@H](Cc3ccc(C(F)(F)F)cc3)C(=O)N(C)CC(=O)N[C@@H](CCc3ccc(C(F)(F)F)c(Cl)c3)C(=O)N2C1 [PP1379] | 9.54 | 7.99 | A (a compound having 10 or more and less than 20 is denoted as A) | B (a compound having 3 or more and less than 10 is denoted as B) |  |  |  |  |  |
| CCC[C@H]1C(=O)N[C@@H]([C@@H](C)CC)C(=O)N2CCC[C@H]2C(=O)N(C)[C@H]2C/C=C\CCN(C2=O)[C@@H](Cc2ccc(C)cc2)C(=O)N(C)CC(=O)N[C@@H](CCc2ccc(C(F)(F)F)c(OC)c2)C(=O)N2C[C@@H](C)C[C@H]2C(=O)N(C)C2(CCC2)C(=O)N(C)[C@@H](C2CCCC2)C(=O)N(C)[C@H](C(=O)N(C)C)CC(=O)N1C [PP2368] |  |  |  |  | 10.35 | 8.39 | A (a compound having 10 or more and less than 20 is denoted as A) | A (a compound having 10 or more and less than 20 is denoted as A) |  |
| CCO[C@@H]1C[C@H]2C(=O)NC3(CCC3)C(=O)N(C)[C@@H](C3CCCC3)C(=O)N(C)[C@H](C(=O)N3CCOCC3)CC(=O)N(C)[C@@H](CC)C(=O)N[C@@H]([C@@H](C)CC)C(=O)N3CC[C@H]3C(=O)N(C)[C@H]3C[C@@H](C)[C@@H](C)CN(C3=O)[C@@H](Cc3ccc(C(F)(F)F)cc3)C(=O)N(C)CC(=O)N[C@@H](CCc3ccc(C(F)(F)F)c(Cl)c3)C(=O)N2C1 [PP1357] | 9.89 | 8.27 | A (a compound having 10 or more and less than 20 is denoted as A) | B (a compound having 3 or more and less than 10 is denoted as B) |  |  |  |  |  |
| CCC[C@H]1C(=O)N[C@@H]([C@@H](C)CC)C(=O)N2CCCC[C@H]2C(=O)N(C)[C@H]2C/C=C\CCN(C2=O)[C@@H](Cc2ccc(C(F)(F)F)cc2)C(=O)N(C)CC(=O)N[C@@H](CCc2cc(F)c(C(F)(F)F)c(F)c2)C(=O)N2C[C@H](OCC)C[C@H]2C(=O)N(C)C2(CCC2)C(=O)N(C)[C@@H](C2CCCC2)C(=O)N(C)[C@H](C(=O)N(C)C)CC(=O)N1C [PP3271] |  |  |  |  |  | 7.64 | A (a compound having 10 or more and less than 20 is denoted as A) | B (a compound having 3 or more and less than 10 is denoted as B) | 9.09 |
| CCO[C@@H]1C[C@H]2C(=O)NC3(CCC3)C(=O)N(C)[C@@H](C3CCCC3)C(=O)N(C)[C@H](C(=O)N(C)C)CC(=O)N(C)[C@@H](CC(C)(C)C)C(=O)N[C@@H]([C@@H](C)CC)C(=O)N(C)CC(=O)N(C)[C@H]3C/C=C\CCN(C3=O)[C@@H](CC3CCC(F)(F)CC3)C(=O)N(C)CC(=O)N[C@@H](CCc3cc(F)c(C(F)(F)F)c(F)c3)C(=O)N2C1 [PP1460] | 9.64 | 7.48 | A (a compound having 10 or more and less than 20 is denoted as A) | A (a compound having 10 or more and less than 20 is denoted as A) |  |  |  |  |  |
